Laboratory results published in patent publication US8795979B2, “Hydrolase enzyme substrates and uses thereof” (General Atomics, priority 2011, dated 2014).

Experiments:
Type in all cases: biochemical
[1] = molecular target: T1, aryl alcohol dehydrogenase (AAD) (Pseudomonas putida, UniProt P39849); assay: Kinetic constants of AAD; conditions: recombinant Pseudomonas putida AAD
T1 construct: made in house; host or cells: E. coli
T1 sequence (P39849 1-366): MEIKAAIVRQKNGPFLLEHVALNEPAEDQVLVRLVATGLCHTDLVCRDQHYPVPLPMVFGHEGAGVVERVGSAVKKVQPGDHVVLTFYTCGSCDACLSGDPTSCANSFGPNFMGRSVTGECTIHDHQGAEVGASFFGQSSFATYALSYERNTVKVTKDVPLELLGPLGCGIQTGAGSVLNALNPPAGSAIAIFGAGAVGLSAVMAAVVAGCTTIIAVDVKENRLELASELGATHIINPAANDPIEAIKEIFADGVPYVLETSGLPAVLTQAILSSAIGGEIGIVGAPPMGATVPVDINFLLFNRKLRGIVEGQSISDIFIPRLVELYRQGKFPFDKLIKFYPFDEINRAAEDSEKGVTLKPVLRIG
Description: AAO was purified from Pleurotus eryngii using the procedures described in Guillen, F. et al., “Substrate specificity and properties of aryl-alcohol oxidase from the ligninolytic fungus Pleurotus eryngii,” Eur. J. Biochem., 209:603-611 (1992). The purification steps include concentration, anion exchange chromatography and hydrophobic interaction chromatography. DNA construct for recombinant production of Pseudomonas putida AAD was made based on the DNA sequence disclosed in Shaw, J. P. et al., Kinetic studies on benzyl alcohol dehydrogenase encoded by TOL plasmid pWW0,” J. Biol. Chem., 268:10842-10850 (1993), and the recombinant Pseudomonas putida AAD was made by overexpression in E. coli. The cycling system was combined with chemiluminescent (lumino)-hydrogen peroxide-horseradish peroxidase) reaction to form a sensitive assay.
For AAD, KNADH=9.1±2 μM; Kp-Anisyl aldehyde=6.6±0.8 μM; and kcat=30/s.

aryl alcohol oxidase = assay: Incubation with aryl alcohol oxidase alone, H2O2 detection; conditions: no beta-galactosidase
Description: (§1) The aryl alcohol dehydrogenase used in this example was recombinantly produced based on the description in Guillen and Evans, Appl. Environmental Microbiol., 60(8):2811-17 (1994) and Reiser et al., J. Biol. Chem., 269(45):28152-28159 (1994).

beta-galactosidase = assay: Hydrolysis by beta-galactosidase coupled with aryl alcohol oxidase, H2O2 detection; conditions: 10 mM substrate, 10 unit/ml beta-galactosidase and 20 unit/ml aryl alcohol oxidase, 37° C., 30 min
Description: as §1

NC(=O)C1=CN([C@@H]2O[C@H](COP(=O)(O)OP(=O)(O)OC[C@H]3O[C@@H](n4cnc5c(N)ncnc54)[C@H](O)[C@@H]3O)[C@@H](O)[C@H]2O)C=CC1 [NADH, reference compound]
KNADH (AAD) [1]: 9.1 ± 2 µM

COc1ccc(C=O)cc1 [p-Anisyl aldehyde]
Kp-Anisyl aldehyde (AAD) [1]: 6.6 ± 0.8 µM | kcat (AAD) [1]: 30 s⁻¹

COc1ccc(CO[C@@H]2OC(CO)[C@H](O)[C@@H](O)C2O)cc1 (stereo partly drawn) [p-MOBG, p-Methoxybenzyl-β-D-Galactopyranoside]
H2O2 detected on incubation with aryl alcohol oxidase alone (aryl alcohol oxidase): no H2O2 detected | generation of H2O2 (detected by peroxidase in the presence of 4-AA and TOOS at 560 nm) (beta-galactosidase): resulted in generation of H2O2
